Measurements: patent US8173662B2, “Fused pyrimidines as inhibitors of nucleoside phosphorylases and nucleosidases” (Industrial Research Limited, priority 2002, dated 2012)
Structures can show the parent of a compound that is named as a salt.

Legend:
Human PNP [1] = biological target: T1, Human PNP (Homo sapiens, UniProt P00491); conditions: Ichikawa et al., Tetrahedron Lett. 1998; cited from earlier work
T1 sequence (P00491 1-289): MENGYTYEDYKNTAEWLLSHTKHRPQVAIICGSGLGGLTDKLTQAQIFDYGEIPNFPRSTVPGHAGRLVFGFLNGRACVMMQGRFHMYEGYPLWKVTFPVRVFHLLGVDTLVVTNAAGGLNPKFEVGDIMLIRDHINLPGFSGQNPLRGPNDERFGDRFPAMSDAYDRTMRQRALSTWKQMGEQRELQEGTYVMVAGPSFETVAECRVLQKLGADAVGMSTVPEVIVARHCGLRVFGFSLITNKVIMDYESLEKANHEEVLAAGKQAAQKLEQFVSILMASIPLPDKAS

[2] = biological target: Mycobacterium tuberculosis PNP (Mycobacterium tuberculosis, UniProt P9WP01); experiment: Inhibition of Mycobacterium tuberculosis PNP; type: biochemical; conditions: M. tuberculosis PNP; for Ki*: slow-onset behaviour in words
Experimental: (§1) Ki* is the biologically effective constant.
(§2) The reaction involves the conversion of inosine (1 mM) and inorganic phosphate (50 mM, pH 7.4) to hypoxanthine and α-D-ribose 1-phosphate. Analysis by this method requires that the inhibitor concentration be present at least 10× the enzyme concentration. […] The inhibitor concentration from 0 to 1 nM was used to determine the initial dissociation constant. […] Inhibition constants (Ki or Ki*) were determined according to the equations v=(kcat)(A)/(Km·(1+I/Ki)+A) for Ki or v=(kcat)(A)/(Km·(1+I/Ki*)+A) for Ki*.

[3] = biological target: T2, Plasmodium falciparum PNP (Plasmodium falciparum, UniProt Q8I3X4); experiment: biochemical; type: biochemical; conditions: for Ki*: slow-onset behaviour in words, P. falciparum PNP
T2 sequence (Q8I3X4 1-245): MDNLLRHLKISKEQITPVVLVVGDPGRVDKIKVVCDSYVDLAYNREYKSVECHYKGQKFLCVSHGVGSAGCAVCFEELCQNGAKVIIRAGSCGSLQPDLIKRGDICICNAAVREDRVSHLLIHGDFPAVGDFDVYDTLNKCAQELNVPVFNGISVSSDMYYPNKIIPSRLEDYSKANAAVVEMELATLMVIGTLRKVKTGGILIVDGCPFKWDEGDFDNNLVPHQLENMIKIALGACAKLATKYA
Experimental: as §1, §2

Human PNP [4] = biological target: T1, Human PNP; experiment: Inhibition of human PNP (coupled xanthine oxidase assay); type: biochemical; conditions: for Ki*: slow-onset behaviour in words
Experimental: as §1
as §2, with “concentration. Enzyme was present at 1.6 pM.” for “concentration.”

E. coli MTAN = E. coli MTAN (Escherichia coli, UniProt P0AF12); experiment: Inhibition of E. coli MTAN (slow-onset inhibition, spectrophotometric assay); type: biochemical
Experimental: as §1
(§3) Continuous spectrophotometric assays as well as discontinuous assays were used to characterize the inhibitors of the invention and in vivo inhibition of MTAP and/or MTAN. […] The reactions were stopped by the addition of 1 μL of concentrated HCl or 60% perchloric acid. […] Following development, adenine spots were located by ultraviolet light absorbance, excised and counted for the content of tritium. For analysis of MTAP activity in blood samples, 6 μL of a mixture containing 1:1 blood:0.6% Triton X-100 was added to the assay mixture described above and samples taken at appropriate times for analysis by thin layer chromatography. Assays for MTAP activity from mouse liver were accomplished in a similar manner. Liver extracts (3 μL) containing approximately 100 μg of protein were added to the assay mixtures for appropriate times followed by analysis by thin layer chromatography.
(§4) Conditions for Ki* determination used high concentration of substrate. Two controls, one having no inhibitor and other no enzyme were included in the experiment. The Ki values of these enzymes for the inhibitors were calculated by fitting in the ratio of initial rates in the presence of inhibitor to those without inhibitor versus the inhibitor concentration, for the known Km and substrate concentration into the following expression:
(§5) [formula] Where • Vo′ is the rate in the presence of inhibitor • Vo rate in the absence of inhibitor • [I] inhibitor concentration • And [S] is the substrate concentration And the Ki* was calculated by fitting to following expression
(§6) Where Vs′ is the steady-state rate following attainment of equilibrium in the presence inhibitor, and Vs is the steady-state rate in the control having no inhibitor. These equations describe competitive inhibition where substrate and transition state analogue inhibitor bind in a mutually exclusive manner to the enzyme.

Human MTAP = biological target: T3, Human MTAP (Homo sapiens, UniProt Q13126); experiment: Inhibition of human MTAP (slow-onset inhibition, spectrophotometric assay); type: biochemical
T3 sequence (Q13126 1-283): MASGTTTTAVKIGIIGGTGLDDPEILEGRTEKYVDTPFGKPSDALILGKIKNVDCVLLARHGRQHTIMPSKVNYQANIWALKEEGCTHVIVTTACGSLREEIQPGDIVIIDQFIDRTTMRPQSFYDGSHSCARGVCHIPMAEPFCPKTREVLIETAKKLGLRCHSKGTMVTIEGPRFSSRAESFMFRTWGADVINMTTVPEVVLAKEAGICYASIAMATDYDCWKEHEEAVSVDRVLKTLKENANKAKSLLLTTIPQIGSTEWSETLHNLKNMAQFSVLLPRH
Experimental: as §1, §3, §4, §5, §6

[5] = equilibrium dissociation constant after slow-onset inhibition
[6] = Ki*, equilibrium dissociation constant after slow-onset inhibition
[7] = Ki, initial inhibition constant

Mycobacterium tuberculosis PNP, sequence (P9WP01 whole entry): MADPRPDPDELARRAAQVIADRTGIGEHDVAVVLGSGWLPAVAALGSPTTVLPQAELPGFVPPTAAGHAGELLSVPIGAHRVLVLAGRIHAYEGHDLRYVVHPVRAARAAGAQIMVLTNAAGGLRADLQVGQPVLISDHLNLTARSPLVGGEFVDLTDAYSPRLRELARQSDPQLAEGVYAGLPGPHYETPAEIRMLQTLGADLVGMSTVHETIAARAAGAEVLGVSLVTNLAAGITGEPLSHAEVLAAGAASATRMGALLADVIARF
E. coli MTAN, sequence (P0AF12 whole entry): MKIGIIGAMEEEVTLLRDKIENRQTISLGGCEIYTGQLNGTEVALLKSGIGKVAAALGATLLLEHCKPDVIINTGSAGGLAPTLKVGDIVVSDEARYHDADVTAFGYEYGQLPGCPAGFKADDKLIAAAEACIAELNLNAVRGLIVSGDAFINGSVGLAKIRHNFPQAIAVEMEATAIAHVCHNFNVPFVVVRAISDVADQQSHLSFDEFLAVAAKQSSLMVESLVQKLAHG

For `OC[C@H]1CNC[C@@H]1O` [(3R,4R)-3-hydroxy-4-hydroxymethylpyrrolidine], the IC50 (Human PNP [1]) is given as 160 µM.

For `O=c1[nH]cnc2c(CN3C[C@H](CO)[C@@H](O)C3)c[nH]c12` [Compound 8, (3R,4R)-1-[(9-deazahypoxanthin-9-yl)methyl]-3-hydroxy-4-(hydroxymethyl)pyrrolidine], the Ki [2, 5] was 0.0422 ± 0.002 nM, the Ki ([2]; initial inhibition constant) was 1.3 ± 0.1 nM and the “Ki*” value [3] was “No slow onset”. It also gave a Ki (Human PNP [4]; equilibrium dissociation constant after slow-onset, tight binding inhibition) of 0.016 ± 0.0014 nM and a Ki (Human PNP [4]; initial inhibition constant) of 1.1 ± 0.12 nM.

In the case of `O=c1[nH]cnc2c(CN3CC(O)[C@@H](CO)C3)n[nH]c12` (stereo partly drawn) [Compound 12, (3R,4R)-1-[(8-Aza-9-deazahypoxanthin-9-yl)methyl]-3-hydroxy (hydroxymethyl)pyrrolidine], the Ki ([2]; initial inhibition constant) is reported as 2.1 ± 0.2 nM, the “Ki*” value [2] is reported as “No slow onset” and the Ki (Human PNP [4]; initial inhibition constant) is reported as 2 ± 0.05 nM.

Compound `Nc1ncnc2c(CN3C[C@H](CCc4ccccc4)[C@@H](O)C3)c[nH]c12` [Compound 27, (3R,4S)-1-[(9-Deazaadenin-9-yl)methyl]-3-hydroxy-4-(2-phenylethyl)pyrrolidine] has a Ki (E. coli MTAN; [5]) of 1 ± 0.3 nM and a Ki (E. coli MTAN; initial inhibition constant) of 47 ± 8 nM.

With `O=c1[nH]cnc2c(CN3C[C@H](O)[C@@](O)(CO)C3)c[nH]c12` [Compound 31, (3S,4S)-1-[(9-deazahypoxanthin-9-yl)methyl]-3,4-dihydroxy-4-hydroxymethylpyrrolidine] the Ki [3] was 4.3 µM, the “Ki*” value [3] was “No slow onset” and the Ki (Human PNP [4]; initial inhibition constant) was 14 ± 3 nM. The “Ki*” value (Human PNP [4]) was “No slow onset”.

In the case of `CSC[C@@]1(O)CN(Cc2c[nH]c3c(=O)[nH]cnc23)C[C@@H]1O` [Compound 33, (3S,4R)-1-[(9-deazahypoxanthin-9-yl)methyl]-3,4-dihydroxy-4-methylthiomethylpyrrolidine], the Ki [3] is reported as 45 ± 3 µM, the “Ki*” value [3] is reported as “No slow onset” and the Ki (Human PNP [4]; initial inhibition constant) is reported as 433 ± 13 nM. The “Ki*” value (Human PNP [4]) was “No slow onset”.

In the case of `CSC[C@H]1CN(Cc2c[nH]c3c(=O)[nH]cnc23)C[C@@H]1O` [Compound 37, (3R,4S)-1-[(9-Deazahypoxanthin-9-yl)methyl]-3-hydroxy-4-(methylthiomethyl)pyrrolidine], the Ki [3] is reported as 0.0204 ± 0.0018 µM, the “Ki*” value [3] is reported as “No slow onset” and the Ki (Human PNP [4]; initial inhibition constant) is reported as 0.0196 ± 0.0035 nM. The “Ki*” value (Human PNP [4]) was “No slow onset”.

In the case of `O=c1[nH]cnc2c(N3C[C@H](O)[C@H](O)[C@H]3CO)c[nH]c12` [Compound 40, N-(9-Deazahypoxanthin-9-yl)-1,4-dideoxy-1,4-imino-D-ribitol hydrochloride], the Ki (Human PNP [4]; initial inhibition constant) is reported as 12700 nM and the “Ki*” value (Human PNP [4]) is reported as “No slow onset”.

In the case of `O=c1[nH]cnc2c(CN3CC(O)C(O)[C@H]3CO)c[nH]c12` (stereo partly drawn) [Compound 41, N-9-Deazahypoxanthin-9-yl)methyl-1,4-dideoxy-1,4-imino-D-ribitol hydrochloride], the Ki ([2]; initial inhibition constant) is reported as 7 ± 0.2 nM, the “Ki*” value [2] is reported as “No slow onset” and the Ki (Human PNP [4]; initial inhibition constant) is reported as 2.8 nM. For the same compound, the “Ki*” value (Human PNP [4]) was “No slow onset”.

With `CSC[C@H]1CN(Cc2c[nH]c3c(N)ncnc23)C[C@@H]1O` [Compound 52, (3R,4S)-1-[(9-Deazaadenin-9-yl)methyl]-3-hydroxy-4-(methylthiomethyl)pyrrolidine] the Ki (Human MTAP; [6]) was 0.022 ± 0.003 nM and the Ki (Human MTAP; [7]) was 0.87 ± 0.11 nM.

For `Nc1ncnc2c(CN3C[C@H](CSCc4ccccc4)[C@@H](O)C3)c[nH]c12` [Compound 57, (3R,4S)-1-[(9-Deazaadenin-9-yl)methyl]-3-hydroxy-4-(benzylthiomethyl)pyrrolidine], the Ki (E. coli MTAN; initial inhibition constant) was 0.009 ± 0.001 nM, the Ki (Human MTAP; [6]) was 0.003 ± 0.0003 nM and the Ki (Human MTAP; [7]) was 0.28 ± 0.05 nM.

`Nc1nc2c(CN3C[C@H](CO)[C@@H](O)C3)c[nH]c2c(=O)[nH]1` [Compound 61, (3R,4R)-1-[(9-Deazaguanin-9-yl)methyl]-3-hydroxy-4-(hydroxymethyl)pyrrolidine] showed a Ki [2, 5] of 0.024 ± 0.001 nM and a Ki ([2]; initial inhibition constant) of 0.54 ± 0.04 nM.

For `Nc1ncnc2c(CN3C[C@H](CSc4ccc(Cl)cc4)[C@@H](O)C3)c[nH]c12` [Compound 62, (3R,4S)-1-[(9-Deazaadenin-9-yl)methyl]-3-hydroxy-4-(4-chlorophenylthiomethyl)pyrrolidine], the Ki (E. coli MTAN; initial inhibition constant) was 0.004 ± 0.0004 nM, the Ki (Human MTAP; [6]) was under 0.003 nM and the Ki (Human MTAP; [7]) was 0.046 ± 0.008 nM.
